In US12257352B2, “Compositions and methods for delivery of biomacromolecule agents” (The Regents of the University of Michigan, priority 2016, dated 2025):
Peptide text beside a SMILES is read from it. * marks the point of attachment. FITC = O=C1OC2(c3ccc(O)cc3Oc3cc(O)ccc32)c2ccc(NC(=S)*)cc21

Assay: Lymph node draining of antigen peptide and Cho-CpG (IVIS)
Assay type: in vivo, C57BL/6 mice
Conditions: 31 nmol FITC-tagged Ag subcutaneously at tail base, after 1 day
Method: Female C57BL/6 mice of age 6-8 weeks were purchased from Harlan Laboratories. […] 24 hours after injection, mice were euthanized by carbon dioxide inhalation and axillary lymph nodes and inguinal lymph nodes were harvested and imaged with IVIS optical imaging system (Caliper Lifesciences).
After 24 h, inguinal lymph nodes were harvested, and FITC or Cy5 fluorescence signal was measured with IVIS optical imaging system (Caliper Life Sciences).

- FITC signal in inguinal dLNs: minimal FITC signal in inguinal dLNs
SMILES: CC[C@H](C)[C@H](NC(=O)[C@H](CO)NC(=O)[C@H](CO)NC(=O)[C@H](CO)NC(=O)[C@@H](N)CS)C(=O)N[C@H](C(=O)N[C@@H](CC(N)=O)C(=O)N[C@@H](Cc1ccccc1)C(=O)N[C@@H](CCC(=O)O)C(=O)N[C@@H](CCCCNC(=S)Nc1ccc2c(c1)C(=O)OC21c2ccc(O)cc2Oc2cc(O)ccc21)C(=O)N[C@@H](CC(C)C)C(=O)O)[C@@H](C)CC [free CSS-SIINFEK(FITC)L] (H-CSSSIINFEK(FITC)L-OH)
